Experimental data: patent US20110144018A1, “AGENT FOR PROPHYLAXIS OF REFLEX SYMPATHETIC DYSTROPHY AFTER CEREBRAL APOPLEXY” (priority 2006, published 2011)

What was measured:
[1] = tested on: patients with hemiplegia attributed to cerebrovascular disease (stroke), post-stroke RSD (shoulder-hand syndrome); test: Test of prevention of onset of post-stroke RSD; type: in vivo, human
From the text: Test subjects were 33 patients with hemiplegia attributed to cerebrovascular disease (stroke) at Brunnstrom stage III or lower in either the upper limb or a finger on admission. Patients already developing RSD (shoulder-hand syndrome) on admission and patients with pain in the shoulder joint or swollen paralyzed limbs were excluded from the test. […] On the other hand, 21 test subjects were classified into a rehabilitation alone group (control group) and compared with the EL administration group. Physical therapy and therapeutic exercise, occupational therapy, and the management of the paralyzed limbs were performed thoroughly in all the cases. […] EL administration was initiated 11 to 59 days after an attack of stroke (25.8 days on average) and continued until 5 months after the attack of stroke. The same observation period was applied to the control group. The test subjects were diagnosed as developing RSD (shoulder-hand syndrome) if they had diffuse pain not localized to the shoulder joint, edema involving skin color changes, skin temperature abnormalities, and range of motion limitations, and the practice of their rehabilitation was restricted. These criteria agreed to Veldman's diagnostic criteria or diagnostic criteria, for CRPS-type 1 provided by the International Association for the Study of Pain.
Activities of daily living (ADL) were evaluated on the basis of the Barthel Index (BI) and the range of motion (ROM) of shoulder joint. The movable range of shoulder joint (also referred to as “shoulder ROM”) was regarded as restricted (Shoulder-ROM-restrictions were present.) if either abduction or flexion was restricted in measurement. The test subjects were also examined for sensory impairment, aphasia, and unilateral spatial neglect on admission.
Statistical analysis was conducted with unpaired t-test, Fisher's exact test, or Wilcoxon test, and 5% or lower significance level was regarded as being significant.

[2] = tested on: patients with hemiplegia attributed to cerebrovascular disease (stroke) who developed RSD (shoulder-hand syndrome); test: Test of treatment of post-stroke RSD; type: in vivo, human; settings: therapeutic administration group
Procedure: EL was administered after the onset of RSD (shoulder-hand syndrome) in the same use and dose as in Example 1 to 11 patients with hemiplegia attributed to cerebrovascular disease (stroke) at Brunnstrom stage III or lower in either the upper limb or a finger on admission, who developed RSD (shoulder-hand syndrome). These patients were classified into a therapeutic administration group. On the other hand, the EL administration group of Example 1 was compared as a control (preventive administration group) with the therapeutic administration group.

[3] = tested on: RSD triggered and developed by a trauma or surgical invasion; settings: clinical; cited from earlier work
[4] = EL preventive administration group, 12 cases, 20 units i.m. once a week until 5 months after attack

1-butyric acid-7-(L-2-aminobutyric acid)-26-L-aspartic acid-27-L-valine-29-L-alanine-calcitonin [EL]
Incidence of RSD converted to all patients with hemiplegia attributed to stroke in the facility ([1]; EL administration group): approximately 1.3%
Incidence of RSD ([1]; EL administration initiated within 48 days after stroke): 0%
Incidence of RSD (cases developing RSD) ([1]; EL preventive administration group, 1 of 12 cases): 8.3%
Number of test subjects developing post-stroke RSD (Developed) [1, 4]: 1
Number of test subjects not developing post-stroke RSD (Not developed) [1, 4]: 11
No RSD, the number of persons ([1]; preventive administration group, at completion of administration): 11
Incidence of RSD until discharge from hospital versus unadministered patient group ([1]; repetitive administration to stroke hemiplegia patients without RSD on admission): suppressed significantly and remarkably
Barthel index at completion of EL administration compared with preventive administration group [2]: significantly low
Diffuse pain, shoulder joint pain and progression of range of motion restrictions [2]: slightly suppressed
Suppression of the symptoms of RSD [2]: could not be suppressed completely in any case

O=C1O[C@H]([C@@H](O)CO)C(O)=C1O [vitamin C]
Effect on initial onset of RSD [3]: preventive effect
